{
  "source": "patent US6617321B2",
  "about": "“2-methyl-thieno-benzodiazepine formulation” (Eli Lilly and Company, priority 1997, dated 2003)",
  "assay": "Solubility of olanzapine pamoate salts as a function of pH",
  "type": "physicochemical",
  "conditions": "particularly in the range of pH 4 to 8",
  "data": [
    {"smiles": "Cc1cc2c(s1)Nc1ccccc1N=C2N1CCN(C)CC1.O=C(O)c1cc2ccccc2c(Cc2c(O)c(C(=O)O)cc3ccccc23)c1O", "note": "[olanzapine pamoate, 2-methyl-4-(4-methyl-1-piperazinyl)-10H-thieno[2,3-b][1,5]benzodiazepine pamoate]", "values": [
      {"measurement": "solubility, dependence on pH", "value": "somewhat independent of pH"}
    ]}
  ]
}
